From US10590140B2, “Tetrahydropyrimidodiazepine and dihydropyridodiazepine compounds for treating pain and pain related conditions” (ESTEVE PHARMACEUTICALS, S.A., priority 2016, dated 2020)
Where two headings read alike, the source gives them in different places.

Legend:
[1] = target: human norepinephrine transporter (NET) (Homo sapiens (Human), UniProt P23975); assay: Binding assay to human norepinephrine transporter (NET) ([3H]-Nisoxetin); details: Table 2, dual compounds; [3H]-Nisoxetin binding
Procedure: Binding Assay to Human Norepinephrine Transporter (NET).
Human norepinephrine transporter (NET) enriched membranes (5 μg) were incubated with 5 nM of radiolabeled [3H]-Nisoxetin in assay buffer containing 50 mM Tris-HCl, 120 mM NaCl, 5 mM KCl, pH 7.4.
NSB (non specific binding) was measured by adding 1 μM. After 60 min incubation at 4° C., binding reaction was terminated by filtering through Multiscreen GF/C (Millipore) presoaked in 0.5% polyethyleneimine in Vacuum Manifold Station, followed by 3 washes with ice-cold filtration buffer containing 50 mM Tris-HCl, 0.9% NaCl, pH 7.4.
Filter plates were dried at 60° C. for 1 hour and 30 μl of scintillation cocktail were added to each well before radioactivity reading.

[2] = target: human α2δ-1 subunit of Cav2.2 calcium channel (Homo sapiens (Human), UniProt P54289); assay: Binding assay to human α2δ-1 subunit of Cav2.2 calcium channel ([3H]-Gabapentin); details: read-out: Ki (nM) α2δ-1
Method in brief: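 [3H]-gabapentin binding, 60 min at 27° C; nonspecific binding defined with 10 μM pregabalin. Terminated by filtration on PEI-presoaked GF/C filters, ice-cold 50 mM Tris-HCl pH 7.4 washes, then scintillation counting.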

[3] = Table 2, dual compounds, [3H]-Gabapentin binding
[4] = binding to α2δ-1, [3H]-Gabapentin

Chain of human norepinephrine transporter (NET) (P23975 whole entry): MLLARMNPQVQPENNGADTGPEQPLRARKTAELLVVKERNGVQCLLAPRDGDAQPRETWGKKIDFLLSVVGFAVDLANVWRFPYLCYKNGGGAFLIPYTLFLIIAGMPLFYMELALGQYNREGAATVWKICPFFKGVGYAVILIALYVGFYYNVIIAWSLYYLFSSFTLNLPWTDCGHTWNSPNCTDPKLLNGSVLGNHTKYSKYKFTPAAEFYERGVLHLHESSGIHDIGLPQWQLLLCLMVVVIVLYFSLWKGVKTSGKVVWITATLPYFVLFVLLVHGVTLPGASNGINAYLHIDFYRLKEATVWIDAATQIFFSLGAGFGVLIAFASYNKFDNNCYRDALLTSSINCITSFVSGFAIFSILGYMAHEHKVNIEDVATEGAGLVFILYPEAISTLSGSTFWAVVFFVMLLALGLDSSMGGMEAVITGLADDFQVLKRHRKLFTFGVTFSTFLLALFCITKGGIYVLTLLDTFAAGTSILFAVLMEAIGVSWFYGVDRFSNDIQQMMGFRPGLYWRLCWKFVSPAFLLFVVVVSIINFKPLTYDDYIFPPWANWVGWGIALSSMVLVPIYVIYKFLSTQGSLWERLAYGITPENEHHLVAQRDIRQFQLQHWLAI
Chain of human α2δ-1 subunit of Cav2.2 calcium channel (P54289 25-1103): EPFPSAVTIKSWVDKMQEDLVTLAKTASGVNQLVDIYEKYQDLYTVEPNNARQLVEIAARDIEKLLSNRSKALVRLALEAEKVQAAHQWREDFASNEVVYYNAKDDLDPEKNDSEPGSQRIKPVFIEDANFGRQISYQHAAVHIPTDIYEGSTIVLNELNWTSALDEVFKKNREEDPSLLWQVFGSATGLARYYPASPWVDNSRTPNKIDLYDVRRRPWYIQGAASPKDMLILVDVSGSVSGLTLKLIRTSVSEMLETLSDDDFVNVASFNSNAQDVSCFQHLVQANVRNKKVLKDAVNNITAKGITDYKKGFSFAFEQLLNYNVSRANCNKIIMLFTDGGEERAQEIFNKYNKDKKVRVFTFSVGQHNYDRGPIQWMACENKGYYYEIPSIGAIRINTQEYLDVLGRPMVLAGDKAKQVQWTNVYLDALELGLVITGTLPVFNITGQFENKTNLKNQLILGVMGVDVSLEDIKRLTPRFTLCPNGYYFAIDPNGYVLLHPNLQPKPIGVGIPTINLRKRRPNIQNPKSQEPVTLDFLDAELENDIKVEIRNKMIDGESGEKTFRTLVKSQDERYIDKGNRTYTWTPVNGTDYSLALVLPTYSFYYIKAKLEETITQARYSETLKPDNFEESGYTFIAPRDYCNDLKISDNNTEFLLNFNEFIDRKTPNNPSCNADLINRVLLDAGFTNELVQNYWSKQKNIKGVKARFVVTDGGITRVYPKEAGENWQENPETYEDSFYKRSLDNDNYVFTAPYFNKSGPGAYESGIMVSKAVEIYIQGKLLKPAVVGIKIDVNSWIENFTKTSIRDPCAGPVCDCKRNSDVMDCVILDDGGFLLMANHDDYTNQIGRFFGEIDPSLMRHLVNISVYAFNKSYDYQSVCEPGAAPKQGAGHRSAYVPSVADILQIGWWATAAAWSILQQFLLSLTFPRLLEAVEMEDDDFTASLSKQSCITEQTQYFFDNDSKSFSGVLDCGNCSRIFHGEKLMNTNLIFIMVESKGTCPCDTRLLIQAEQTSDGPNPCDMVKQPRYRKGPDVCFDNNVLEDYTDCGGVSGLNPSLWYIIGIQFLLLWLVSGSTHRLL

| Ki [1] [nM] | Ki [2, 3] [nM] | Ki [2, 4] [nM] | Structure (SMILES) |
| --- | --- | --- | --- |
| 500 to 1000 | 500 to 3000 | 500 to 3000 | CCNc1ncc2c(n1)N(C)CCN(c1cccc(-n3cnc(CN(C)CCc4ccccc4)c3)c1)C2=O [Example 254, 2-(ethylamino)-9-methyl-6-(3-(4-((methyl(phenethyl)amino)methyl)-1H-imidazol-1-yl)phenyl)-6,7,8,9-tetrahydro-5H-pyrimido[4,5-e][1,4]diazepin-5-one] |
| < 100 | > 3000 | > 3000 | CNCCC(OCc1ccc(N2CCN(C)c3nc(SC)ncc3C2=O)cc1)c1ccccc1 (stereo not drawn) [Example 315, 9-methyl-6-(4-((3-(methylamino)-1-phenylpropoxy)methyl)phenyl)-2-(methylthio)-6,7,8,9-tetrahydro-5H-pyrimido[4,5-e][1,4]diazepin-5-one] |
| < 100 | > 3000 | > 3000 | CCNc1ncc2c(n1)N(C)CCN(c1ccc(COC(CNC)c3ccccc3)cc1)C2=O (stereo not drawn) [Example 340, 2-(ethylamino)-9-methyl-6-(4-((2-(methylamino)-1-phenylethoxy)methyl)phenyl)-6,7,8,9-tetrahydro-5H-pyrimido[4,5-e][1,4]diazepin-5-one] |
| 100 to 500 | 100 to 500 | 100 to 500 | CCNc1ncc2c(n1)N(C)CCN(c1cccc(-n3cnc(CN(C)Cc4ccccc4)c3)c1)C2=O [Example 253, 6-(3-(4-((benzyl(methyl)amino)methyl)-1H-imidazol-1-yl)phenyl)-2-(ethylamino)-9-methyl-6,7,8,9-tetrahydro-5H-pyrimido[4,5-e][1,4]diazepin-5-one] |
| 100 to 500 | 500 to 3000 | 500 to 3000 | CCNc1ncc2c(n1)N(C)CCN(c1cccc(-n3cc(CN(C)Cc4ccccn4)nn3)c1)C2=O [Example 288, 2-(ethylamino)-9-methyl-6-(3-(4-((methyl(pyridin-2-ylmethyl)amino)methyl)-1H-1,2,3-triazol-1-yl)phenyl)-6,7,8,9-tetrahydro-5H-pyrimido[4,5-e][1,4]diazepin-5-one] |
| < 100 | 500 to 3000 | 500 to 3000 | CCNc1ncc2c(n1)N(C)CCN(c1cccc(-n3cc(CN(C)CCc4ccccc4)nn3)c1)C2=O [Example 244, 2-(ethylamino)-9-methyl-6-(3-(4-((methyl(phenethyl)amino)methyl)-1H-1,2,3-triazol-1-yl)phenyl)-6,7,8,9-tetrahydro-5H-pyrimido[4,5-e][1,4]diazepin-5-one] |
| < 100 | > 3000 | > 3000 | CNCC(OCc1ccc(N2CCN(C)c3nc(SC)ncc3C2=O)cc1)c1ccccc1 (stereo not drawn) [Example 321, 9-methyl-6-(4-((2-(methylamino)-1-phenylethoxy)methyl)phenyl)-2-(methylthio)-6,7,8,9-tetrahydro-5H-pyrimido[4,5-e][1,4]diazepin-5-one] |
| 100 to 500 | 100 to 500 | 100 to 500 | CNCC[C@H](Oc1ccc(CN2CCN(C)c3cc(C)ncc3C2=O)cc1)c1cccs1 [Example 308, (S)-1,8-dimethyl-4-(4-(3-(methylamino)-1-(thiophen-2-yl)propoxy)benzyl)-1,2,3,4-tetrahydro-5H-pyrido[4,3-e][1,4]diazepin-5-one] |
| < 100 | 500 to 3000 | 500 to 3000 | CCNc1ncc2c(n1)N(C)CCN(Cc1ccc(OC(CCNC)c3ccccc3)cc1)C2=O (stereo not drawn) [Example 408, 2-(ethylamino)-9-methyl-6-(4-(3-(methylamino)-1-phenylpropoxy)benzyl)-6,7,8,9-tetrahydro-5H-pyrimido[4,5-e][1,4]diazepin-5-one] |
| 500 to 1000 | > 3000 | > 3000 | CNCCC(Oc1cccc(CN2CCN(C)c3nc(SC)ncc3C2=O)c1)c1ccccc1 (stereo not drawn) [Example 366, 9-methyl-6-(3-(3-(methylamino)-1-phenylpropoxy)benzyl)-2-(methylthio)-6,7,8,9-tetrahydro-5H-pyrimido[4,5-e][1,4]diazepin-5-one] |
| < 100 | > 3000 | > 3000 | CNCC[C@H](Oc1cccc(N2CCN(C)c3nc(SC)ncc3C2=O)c1)c1ccccc1 [Example 153, (S)-9-methyl-6-(3-(3-(methylamino)-1-phenylpropoxy)phenyl)-2-(methylthio)-6,7,8,9-tetrahydro-5H-pyrimido[4,5-e][1,4]diazepin-5-one] |
| > 1000 | > 3000 | > 3000 | CCNc1ncc2c(n1)N(C)CCN(c1ccc(OC(CNC)c3ccccc3)cc1)C2=O (stereo not drawn) [Example 159, 2-(ethylamino)-9-methyl-6-(4-(2-(methylamino)-1-phenylethoxy)phenyl)-6,7,8,9-tetrahydro-5H-pyrimido[4,5-e][1,4]diazepin-5-one] |
| 100 to 500 | 100 to 500 | 100 to 500 | CNCC[C@@H](OCc1cccc(N2CCN(C)c3nc(N(C)Cc4ccccn4)ncc3C2=O)c1)c1ccccc1 [Example 341, (R)-9-methyl-2-(methyl(pyridin-2-ylmethyl)amino)-6-(3-((3-(methylamino)-1-phenylpropoxy)methyl)phenyl)-6,7,8,9-tetrahydro-5H-pyrimido[4,5-e][1,4]diazepin-5-one] |
| > 1000 | 500 to 3000 | 500 to 3000 | CCNc1ncc2c(n1)N(C)CCN(c1cccc(C(C)(C)CNC)c1)C2=O [Example 173, 2-(ethylamino)-9-methyl-6-(3-(2-methyl-1-(methylamino)propan-2-yl)phenyl)-6,7,8,9-tetrahydro-5H-pyrimido[4,5-e][1,4]diazepin-5-one] |
| 100 to 500 | 100 to 500 | 100 to 500 | CNCC[C@H](Oc1ccc(CN2CCN(C)c3cc(OC)ncc3C2=O)cc1)c1cccs1 [Example 385, (S)-8-methoxy-1-methyl-4-(4-(3-(methylamino)-1-(thiophen-2-yl)propoxy)benzyl)-1,2,3,4-tetrahydro-5H-pyrido[4,3-e][1,4]diazepin-5-one] |
| 500 to 1000 | > 3000 | > 3000 | CNCCC(OCc1ccc(CN2CCN(C)c3nc(C)ncc3C2=O)cc1)c1ccccc1 (stereo not drawn) [Example 422, 2,9-dimethyl-6-(4-((3-(methylamino)-1-phenylpropoxy)methyl)benzyl)-6,7,8,9-tetrahydro-5H-pyrimido[4,5-e][1,4]diazepin-5-one] |
| < 100 | > 3000 | > 3000 | CNCCC(Oc1ccc(CN2CCN(C)c3nc(C)ncc3C2=O)cc1)c1ccccc1 (stereo not drawn) [Example 425, 2,9-dimethyl-6-(4-(3-(methylamino)-1-phenylpropoxy)benzyl)-6,7,8,9-tetrahydro-5H-pyrimido[4,5-e][1,4]diazepin-5-one] |
| 500 to 1000 | > 3000 | > 3000 | CNCC(OCc1cccc(N2CCN(C)c3nc(SC)ncc3C2=O)c1)c1ccccc1 (stereo not drawn) [Example 226, 9-methyl-6-(3-((2-(methylamino)-1-phenylethoxy)methyl)phenyl)-2-(methylthio)-6,7,8,9-tetrahydro-5H-pyrimido[4,5-e][1,4]diazepin-5-one] |
| 100 to 500 | > 3000 | > 3000 | CNCC(OCc1ccc(CN2CCN(C)c3nc(SC)ncc3C2=O)cc1)c1ccccc1 (stereo not drawn) [Example 374, 9-methyl-6-(4-((2-(methylamino)-1-phenylethoxy)methyl)benzyl)-2-(methylthio)-6,7,8,9-tetrahydro-5H-pyrimido[4,5-e][1,4]diazepin-5-one] |
| 100 to 500 | 500 to 3000 | 500 to 3000 | CCNc1ncc2c(n1)N(C)CCN(Cc1ccc(O[C@H](CCNC)c3ccccc3)cc1)C2=O [Example 415, (R)-2-(ethylamino)-9-methyl-6-(4-(3-(methylamino)-1-phenylpropoxy)benzyl)-6,7,8,9-tetrahydro-5H-pyrimido[4,5-e][1,4]diazepin-5-one] |
| < 100 | > 3000 | > 3000 | CNCC(OCc1ccc(N2CCN(C)c3nc(C)ncc3C2=O)cc1)c1ccccc1 (stereo not drawn) [Example 355, 2,9-dimethyl-6-(4-((2-(methylamino)-1-phenylethoxy)methyl)phenyl)-6,7,8,9-tetrahydro-5H-pyrimido[4,5-e][1,4]diazepin-5-one] |
| 100 to 500 | 500 to 3000 | 500 to 3000 | CNCCC(OCc1cccc(N2CCN(C)c3nc(N(C)Cc4ccccn4)ncc3C2=O)c1)c1ccccc1 (stereo not drawn) [Example 336, 9-methyl-2-(methyl(pyridin-2-ylmethyl)amino)-6-(3-((3-(methylamino)-1-phenylpropoxy)methyl)phenyl)-6,7,8,9-tetrahydro-5H-pyrimido[4,5-e][1,4]diazepin-5-one] |

| Structure (SMILES) | Ki [1] [nM] | Ki [2, 3] [nM] | Ki [2, 4] [nM] |
| --- | --- | --- | --- |
| CSc1ncc2c(n1)N(C)CCN(c1cccc(COC3(c4ccccc4)CCN(C)CC3)c1)C2=O [Example 271, 9-methyl-6-(3-(((1-methyl-4-phenylpiperidin-4-yl)oxy)methyl)phenyl)-2-(methylthio)-6,7,8,9-tetrahydro-5H-pyrimido[4,5-e][1,4]diazepin-5-one] | > 1000 | > 3000 | > 3000 |
| CCNc1ncc2c(n1)N(C)CCN(c1cccc(-c3nnc(CN4CCC(c5cccc(O)c5)(N(C)C)CC4)o3)c1)C2=O [Example 442, 6-(3-(5-((4-(dimethylamino)-4-(3-hydroxyphenyl)piperidin-1-yl)methyl)-1,3,4-oxadiazol-2-yl)phenyl)-2-(ethylamino)-9-methyl-6,7,8,9-tetrahydro-5H-pyrimido[4,5-e][1,4]diazepin-5-one] | < 100 | < 100 | < 100 |
